Values after ≈ are worked out from the molar mass of the structure shown.
Legend:
[1] = Half life in iv dosed rat; type: ADME, organism-based; details: in vivo
[2] = Cmax in iv dosed rat; type: ADME, organism-based; details: in vivo
[3] = Solubility of compound at pH 8; type: physicochemical; details: buffer
[4] = Volume of distribution at steady state in iv dosed rat; type: ADME, organism-based; details: in vivo, read-out: Vdss
[5] = Tmax in iv dosed rat; type: ADME, organism-based; details: in vivo
[6] = AUC in iv dosed rat; type: ADME, organism-based; details: in vivo

Description for Plasma: Anticoagulation activity in plasma (unknown origin) assessed as concentration required for twice the activated partial thromboplastin time

Row | SMILES | 2aPTT (Plasma) [µM] | also measured
1 | CC1CC1C(=O)Nc1ccc(C[C@H](NC(=O)c2ccc(C(=O)O)s2)C(=O)N(C)Cc2cc(=O)[nH]c3ccc(Cl)cc23)cc1 (stereo not given in full) | 6.8 | half-life [1]: 48.6 min; Cmax [2]: 2.12 µg/mL; solubility [3]: Soluble; Vd [4]: 40 L/kg; Tmax [5]: 1.2 min; AUC [6]: 0.313 µg·h/mL
2 | CC[C@@H](C(=O)Nc1ccc(C(N)=O)c(F)c1)n1cc(OC)c(-c2cc(Cl)ccc2-n2cc(C(F)(F)F)nn2)cc1=O | 3.8 | –
3 | COC(=O)Nc1ccc(C(=O)N[C@@H](Cc2ccccc2)C(=O)N(C)Cc2cc(=O)[nH]c3ccc(Cl)cc23)cc1 | 16.7 | solubility ([3]; read-out: solubility): 0.0173 mg/mL (≈ 31.6 µM)
4 | CN(Cc1cc(=O)[nH]c2ccc(Cl)cc12)C(=O)[C@H](Cc1ccc(NC(=O)C2CC2)cc1)NC(=O)c1ccc(C(=O)O)s1 | 6.9 | –
5 | CN(Cc1cc(=O)[nH]c2ccc(Cl)cc12)C(=O)[C@H](Cc1ccc(NC(=O)C2CCCCC2)cc1)NC(=O)c1ccc(C(=O)O)s1 | 14 | –
6 | CN(Cc1cc(=O)[nH]c2ccc(Cl)cc12)C(=O)[C@H](Cc1ccc(NC(=O)C2CCCC2)cc1)NC(=O)c1ccc(C(=O)O)s1 | 11.2 | –
7 | CN(Cc1cc(=O)[nH]c2ccc(Cl)cc12)C(=O)[C@H](Cc1ccc(NC(=O)C2CCC2)cc1)NC(=O)c1ccc(C(=O)O)s1 | 13.3 | –
8 | CN(Cc1cc(=O)[nH]c2ccc(Cl)cc12)C(=O)[C@H](Cc1ccc(NC(=O)C2CC2(C)C)cc1)NC(=O)c1ccc(C(=O)O)s1 (stereo not given in full) | 9.8 | –
